The subject of one data set is MV4-11 cells. Put plainly: MV4-11 Cell Cytotoxicity Assay (CellTiter-Blue, 72 h). The class given is cell-based, human. Conditions: 72 h at 37° C. As to the method: In some embodiments, the potency of the STAT5 inhibitors are evaluated by an in vitro assay such as MV4-11 Cell Cytotoxicity Assay. MV4-11 cells were grown in Iscove's Modified Dulbecco's Medium (IMDM) supplemented with 10% fetal bovine serum (FBS). 10,000 cells were plated per well in 96-well flat-bottom sterile culture plates with low-evaporation lids. After 24 h, inhibitors and a vehicle control (0.5% DMSO) were added and the cells were incubated for 72 h at 37° C. in 5% CO2. Inhibitors were examined in triplicate at a maximal concentration of 50 μM, followed by 1:2 dilutions in subsequent wells (25, 12.5, 6.25, 3.125, 1.5625, 0.78125, 0.390625, 0.195313 and 0.097656 μM). After 72 h, the wells were treated with CellTiter-Blue® (20 μL/well), and the plates were incubated using standard cell culture conditions for 1 hour. Fluorescence was measured at 560/590 nm.

The nature of data set [1]: Reactivity Profiling with Glutathione (GSH), HPLC. The format is in vitro ADME. The following applies: 5 mM glutathione (GSH) in cell culture medium, 25 μM inhibitor, IMDM 10% FBS, 0.5% DMSO, 25° C., read-out: T1/2-GSH. The method, then: In some embodiments, metabolic stability of the compounds are evaluated according to their reactivity profiles with GSH.
3.5 μL of 5 mM stocking solution of the inhibitors in DMSO was added to 697.5 μL of Iscove's Modified Dulbecco's Medium (IMDM) supplemented with 10% FBS and antibiotic antimycotic solution, with 5 mM glutathione to afford a final concentration of 25 μM inhibitor with 0.5% DMSO. The solution was then immediately placed in the sample tray at 25° C. Sample was analyzed at pre-defined intervals, typically every 1.5 hours, for up to four injections, by HPLC, included at time zero, without further pre-treatment. For each inhibitor, its peak is integrated at different time points and compared to the time zero injection in order to obtain a percentage remaining. Half-life is calculated according to a first order reaction kinetic taking into account those time points for which remaining percentage of inhibitor is above 40%, using the formula: t½=Ln(2)/k, where k is the slope of the linear plot of Ln[Inhibitor] vs time, according to the formula: Ln[A]=Ln[A]0−kt, where [A] is the value resulting from the integration at each time point, [A]0 the value at time zero, and t the time. For each inhibitor, both replicates are averaged and the resulting t½ reported. Selective reactivity against GSH in particular is confirmed by incubation of the inhibitor in the same solution without the presence of GSH, and single analysis after a time longer than the latest time point analyzed for the samples with GSH.

The mark [2] stands for this setting: Homo sapiens, Table 3, read-out: IC50-MV-4-11.

Where two headings read alike, the source gives them in different places.

On to `CC(C)(C)c1cc(CN(C(=O)CN(Cc2ccc(Cl)cc2)S(=O)(=O)c2c(F)c(F)c(F)c(F)c2F)c2cccnc2)cc(C2CC2)c1` [Compound 1001, N-(3-(tert-butyl)-5-cyclopropylbenzyl)-2-(N-(4-chlorobenzyl)-(2,3,4,5,6-pentafluorophenyl)sulfonamido)-N-(pyridin-3-yl) acetamide], for which the 50% inhibitory concentration (IC50) with MV4-11 cells (setting [2]) lay within 1000 to 3160 nM.
Regarding `CC(C)(C)c1cc(CN(C(=O)CN(Cc2ccc(Cl)cc2)S(=O)(=O)c2c(F)c(F)c(F)c(F)c2F)c2ccc(O)nc2)cc(C2CC2)c1` [Compound 1002, N-(3-(tert-butyl)-5-cyclopropylbenzyl)-2-(N-(4-chlorobenzyl)-(2,3,4,5,6-pentafluorophenyl)sulfonamido)-N-(6-hydroxypyridin-3-yl) acetamide], the half-life at 25 μM in data set [1] is 9.23 to 1670 h. The half-maximal inhibitory concentration (IC50) with MV4-11 cells (setting [2]) was in the range of 1000 to 3160 nM.
On to `CC(C)(C)c1cc(CN(C(=O)CN(Cc2ccc(Cl)cc2)S(=O)(=O)c2c(F)c(F)c(F)c(F)c2F)c2ccc(C(=O)O)nc2)cc(C2CC2)c1` [Compound 1004, 5-(N-(3-(tert-butyl)-5-cyclopropylbenzyl)-2-(N-(4-chlorobenzyl)-(2,3,4,5,6-pentafluorophenyl)sulfonamido)acetamido) picolinic acid], for which the IC50 in the data set with MV4-11 cells (setting [2]) was 3160 to 100000 nM.
Regarding `COc1ccc(N(Cc2cc(C3CC3)cc(C(C)(C)C)c2)C(=O)CN(Cc2ccc(Cl)cc2)S(=O)(=O)c2c(F)c(F)c(F)c(F)c2F)cn1` [Compound 1005, N-(3-(tert-butyl)-5-cyclopropylbenzyl)-2-(N-(4-chlorobenzyl)-(2,3,4,5,6-pentafluorophenyl)sulfonamido)-N-(6-methoxypyridin-3-yl) acetamide], in the data set with MV4-11 cells (setting [2]), the IC50 was in the range of 3160 to 100000 nM.
Take `CC(C)(C)c1cc(CN(C(=O)CN(Cc2ccc(Cl)cc2)S(=O)(=O)c2c(F)c(F)c(F)c(F)c2F)c2cnc(N)nc2)cc(C2CC2)c1` [Compound 1006, N-(2-aminopyrimidin-5-yl)-N-(3-(tert-butyl)-5-cyclopropylbenzyl)-2-(N-(4-chlorobenzyl)-(2,3,4,5,6-pentafluorophenyl)sulfonamido)acetamide]: in data set [1], the half-life at 25 μM was in the range of 9.23 to 1670 h. Moreover, in the data set with MV4-11 cells (setting [2]), the IC50 is 1000 to 3160 nM.
As to `CC(C)(C)c1cc(CN(C(=O)CN(Cc2ccc(Cl)cc2)S(=O)(=O)c2c(F)c(F)c(F)c(F)c2F)c2ccc(N)nc2)cc(C2CC2)c1` [Compound 1007, N-(6-aminopyridin-3-yl)-N-(3-(tert-butyl)-5-cyclopropylbenzyl)-2-(N-(4-chlorobenzyl)-(2,3,4,5,6-pentafluorophenyl)sulfonamido)acetamide], the 50% inhibitory concentration (IC50) with MV4-11 cells (setting [2]) was in the range of 1000 to 3160 nM.
For the molecule `CC(C)(C)c1cc(CN(C(=O)CN(Cc2ccccc2F)S(=O)(=O)c2c(F)c(F)c(F)c(F)c2F)c2ccc(N)nc2)cc(C2CC2)c1` [Compound 1008, N-(6-aminopyridin-3-yl)-N-(3-(tert-butyl)-5-cyclopropylbenzyl)-2-(N-(2-fluorobenzyl)-(2,3,4,5,6-pentafluorophenyl)sulfonamido)acetamide], in the data set on MV4-11 cells (setting [2]), the concentration for half-maximal inhibition (IC50) was 1000 to 3160 nM.
`CC(C)(C)c1cc(CN(C(=O)CN(Cc2ccccc2F)S(=O)(=O)c2c(F)c(F)c(F)c(F)c2F)c2cnc(N)nc2)cc(C2CC2)c1` [Compound 1009, N-(2-aminopyrimidin-5-yl)-N-(3-(tert-butyl)-5-cyclopropylbenzyl)-2-(N-(2-fluorobenzyl)-(2,3,4,5,6-pentafluorophenyl)sulfonamido)acetamide]: the half-life at 25 μM in data set [1] lay in the range of 4.12 to 9.23 h. Further, in the data set with MV4-11 cells (setting [2]), the IC50 lay in the range of 0.01 to 1000 nM.
For the molecule `CN(C)c1c(NCCN(Cc2cc(C3CC3)cc(C(C)(C)C)c2)C(=O)CN(Cc2ccccc2F)S(=O)(=O)c2c(F)c(F)c(F)c(F)c2F)c(=O)c1=O` [Compound 1010, N-(3-(tert-butyl)-5-cyclopropylbenzyl)-N-(2-((2-(dimethylamino)-3,4-dioxocyclobut-1-en-1-yl)amino)ethyl)-2-(N-(2-fluorobenzyl)-(2,3,4,5,6-pentafluorophenyl)sulfonamido)acetamide], in data set [1], the half-life at 25 μM lay within 9.23 to 1670 h. Further, the concentration for half-maximal inhibition (IC50) in the data set on MV4-11 cells (setting [2]) lay in the range of 0.01 to 1000 nM.
On to `CN(C)c1c(NCCN(Cc2cc(C3CC3)cc(C(C)(C)C)c2)C(=O)CN(Cc2c(F)cc(F)cc2F)S(=O)(=O)c2c(F)c(F)c(F)c(F)c2F)c(=O)c1=O` [Compound 1011, N-(3-(tert-butyl)-5-cyclopropylbenzyl)-N-(2-((2-(dimethylamino)-3,4-dioxocyclobut-1-en-1-yl)amino)ethyl)-2-(N-(2,4,6-trifluorobenzyl)-(2,3,4,5,6-pentafluorophenyl)sulfonamido)acetamide], for which the IC50 with MV4-11 cells (setting [2]) lay within 0.01 to 1000 nM.
With `CN(C)c1c(NCCN(Cc2cc(C3CC3)cc(C(C)(C)C)c2)C(=O)CN(Cc2cnccc2C(F)(F)F)S(=O)(=O)c2c(F)c(F)c(F)c(F)c2F)c(=O)c1=O` [Compound 1012, N-(3-(tert-butyl)-5-cyclopropylbenzyl)-N-(2-((2-(dimethylamino)-3,4-dioxocyclobut-1-en-1-yl)amino)ethyl)-2-(N-((4-(trifluoromethyl)pyridin-3-yl)methyl)-(2,3,4,5,6-pentafluorophenyl)sulfonamido)acetamide], the half-life at 25 μM in data set [1] lay within 4.12 to 9.23 h. In the data set with MV4-11 cells (setting [2]), the half-inhibitory concentration (IC50) fell in the range of 0.01 to 1000 nM.
For `CNc1c(NCCN(Cc2cc(C3CC3)cc(C(C)(C)C)c2)C(=O)CN(Cc2ccccc2F)S(=O)(=O)c2c(F)c(F)c(F)c(F)c2F)c(=O)c1=O` [Compound 1013, N-(3-(tert-butyl)-5-cyclopropylbenzyl)-N-(2-((2-(methylamino)-3,4-dioxocyclobut-1-en-1-yl)amino)ethyl)-2-(N-(2-fluorobenzyl)-(2,3,4,5,6-pentafluorophenyl)sulfonamido)acetamide] the same measures were 9.23 to 1670 h and 0.01 to 1000 nM.
Taken in the same sequence, the figures for `CN(C)c1c(N(C)CCN(Cc2cc(C3CC3)cc(C(C)(C)C)c2)C(=O)CN(Cc2ccccc2F)S(=O)(=O)c2c(F)c(F)c(F)c(F)c2F)c(=O)c1=O` [Compound 1014, N-(3-(tert-butyl)-5-cyclopropylbenzyl)-N-(2-((2-(dimethylamino)-3,4-dioxocyclobut-1-en-1-yl) (methyl)amino)ethyl)-2-(N-(2-fluorobenzyl)-(2,3,4,5,6-pentafluorophenyl)sulfonamido)acetamide] were 9.23 to 1670 h and 0.01 to 1000 nM.
Consider `CN(C)c1c(NCCCN(Cc2cc(C3CC3)cc(C(C)(C)C)c2)C(=O)CN(Cc2ccccc2F)S(=O)(=O)c2c(F)c(F)c(F)c(F)c2F)c(=O)c1=O` [Compound 1015, N-(3-(tert-butyl)-5-cyclopropylbenzyl)-N-(3-((2-(dimethylamino)-3,4-dioxocyclobut-1-en-1-yl)amino)propyl)-2-(N-(2-fluorobenzyl)-(2,3,4,5,6-pentafluorophenyl)sulfonamido)acetamide], for which, in the data set on MV4-11 cells (setting [2]), the 50% inhibitory concentration (IC50) lay within 0.01 to 1000 nM.
Still for that read-out and setting: to `CNc1c(N(C)CCN(Cc2cc(C3CC3)cc(C(C)(C)C)c2)C(=O)CN(Cc2ccccc2F)S(=O)(=O)c2c(F)c(F)c(F)c(F)c2F)c(=O)c1=O` [Compound 1016, N-(3-(tert-butyl)-5-cyclopropylbenzyl)-N-(2-(methyl(2-(methylamino)-3,4-dioxocyclobut-1-en-1-yl)amino)ethyl)-2-(N-(2-fluorobenzyl)-(2,3,4,5,6-pentafluorophenyl)sulfonamido)acetamide] belongs 0.01 to 1000 nM; to `CC(C)(C)c1cc(CN(C(=O)CN(Cc2cnccc2C(F)(F)F)S(=O)(=O)c2c(F)c(F)c(F)c(F)c2F)c2cnc(N)nc2)cc(C2CC2)c1` [Compound 1017, N-(2-aminopyrimidin-5-yl)-N-(3-(tert-butyl)-5-cyclopropylbenzyl)-2-(N-((4-(trifluoromethyl)pyridin-3-yl)methyl)-(2,3,4,5,6-pentafluorophenyl)sulfonamido)acetamide], 0.01 to 1000 nM.
On to `CC(C)(C)c1cc(CN(C(=O)CN(Cc2ccc(Cl)cc2)S(=O)(=O)c2c(F)c(F)c(F)c(F)c2F)C2=CNC(=O)NC2)cc(C2CC2)c1` [Compound 1018, N-(3-(tert-butyl)-5-cyclopropylbenzyl)-2-(N-(4-chlorobenzyl)-(2,3,4,5,6-pentafluorophenyl)sulfonamido)-N-(2-oxo-1,2,3,4-tetrahydropyrimidin-5-yl)acetamide], for which the half-maximal inhibitory concentration (IC50) in the data set on MV4-11 cells (Homo sapiens, Table 4, read-out: IC50-MV-4-11) was 1000 to 3160 nM.
As for “N-(3-(tert-butyl)-5- cyclopropylbenzyl)-2-(N-(4- chlorobenzyl)-(2,3,4,5,6- pentafluorophenyl) sulfonamido)-N-(2- methoxypyrimidin-5-yl) acetamide [Compound 1003]”, in the data set with MV4-11 cells (Table 3, read-out: IC50-MV-4-11), the 50% inhibitory concentration (IC50) is 1000 to 3160 nM.

The record behind these values is US20230150946A1, “HETEROCYCLE CONTAINING STAT INHIBITORS AND COMPOSITIONS” (JANPIX LIMITED, priority 2020, published 2023).
